Laboratory results from the supplement of paper PMC11451515.

System: SEM cells
Assay: cell viability relative to DMSO control; higher = less cytotoxic
Conditions: 48 h
Method in brief: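 NOMO1 or SEM (500 cells/well) or P12-Ichikawa (1000 cells/well) leukemia cells were adapted for at least four passages in each medium. They were seeded in 1536-well plates (5 μl) and pin-dosed with library compounds in DMSO over an 11-point threefold series, 47 μM to 0.79 nM. CellTiter-Glo One luminescence was read after 48 h at 37°C. Viability is the per-plate percentage relative to DMSO wells, with cell-free wells as background.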

[1] = HPLM + 10% dialyzed FBS, 0.000781 µM
[2] = HPLM + 10% dialyzed FBS, 0.00234 µM
[3] = HPLM + 10% dialyzed FBS, 0.00702 µM
[4] = HPLM + 10% dialyzed FBS, 0.0211 µM
[5] = HPLM + 10% dialyzed FBS, 0.0632 µM
[6] = HPLM + 10% dialyzed FBS, 0.19 µM
[7] = HPLM + 10% dialyzed FBS, 0.569 µM
[8] = HPLM + 10% dialyzed FBS, 1.71 µM
[9] = HPLM + 10% dialyzed FBS, 5.12 µM
[10] = HPLM + 10% dialyzed FBS, 15.4 µM
[11] = HPLM + 10% dialyzed FBS, 46.1 µM
[12] = RPMI 5 mM glucose + 10% FBS, 0.000781 µM
[13] = RPMI 5 mM glucose + 10% FBS, 0.00234 µM
[14] = RPMI 5 mM glucose + 10% FBS, 0.00702 µM
[15] = RPMI 5 mM glucose + 10% FBS, 0.0211 µM
[16] = RPMI 5 mM glucose + 10% FBS, 0.0632 µM
[17] = RPMI 5 mM glucose + 10% FBS, 0.19 µM
[18] = RPMI 5 mM glucose + 10% FBS, 0.569 µM
[19] = RPMI 5 mM glucose + 10% FBS, 1.71 µM
[20] = RPMI 5 mM glucose + 10% FBS, 5.12 µM
[21] = RPMI 5 mM glucose + 10% FBS, 15.4 µM
[22] = RPMI 5 mM glucose + 10% FBS, 46.1 µM
[23] = RPMI 5 mM glucose + 10% dialyzed FBS, 0.000781 µM
[24] = RPMI 5 mM glucose + 10% dialyzed FBS, 0.00234 µM
[25] = RPMI 5 mM glucose + 10% dialyzed FBS, 0.00702 µM
[26] = RPMI 5 mM glucose + 10% dialyzed FBS, 0.0211 µM
[27] = RPMI 5 mM glucose + 10% dialyzed FBS, 0.0632 µM
[28] = RPMI 5 mM glucose + 10% dialyzed FBS, 0.19 µM
[29] = RPMI 5 mM glucose + 10% dialyzed FBS, 0.569 µM
[30] = RPMI 5 mM glucose + 10% dialyzed FBS, 1.71 µM
[31] = RPMI 5 mM glucose + 10% dialyzed FBS, 5.12 µM
[32] = RPMI 5 mM glucose + 10% dialyzed FBS, 15.4 µM
[33] = RPMI 5 mM glucose + 10% dialyzed FBS, 46.1 µM

Compound | cell viability [1] | cell viability [2] | cell viability [3] | cell viability [4] | cell viability [5] | cell viability [6] | cell viability [7] | cell viability [8] | cell viability [9] | cell viability [10] | cell viability [11] | cell viability [12] | cell viability [13] | cell viability [14] | cell viability [15] | cell viability [16] | cell viability [17] | cell viability [18] | cell viability [19] | cell viability [20] | cell viability [21] | cell viability [22] | cell viability [23] | cell viability [24] | cell viability [25] | cell viability [26] | cell viability [27] | cell viability [28] | cell viability [29] | cell viability [30] | cell viability [31] | cell viability [32] | cell viability [33]
O=C(Cc1ccc(-c2ccc(OCCN3CCOCC3)cc2)cn1)NCc1ccccc1 | 96% | 95.9% | 106% | 67.9% | 28.9% | 22.9% | 21.6% | 20.8% | 18.9% | 15.2% | 10.5% | 79.9% | 84.5% | 87% | 57.9% | 18.9% | 12.9% | 14.8% | 13.6% | 12.2% | 4.65% | 2.89% | 93.6% | 90.8% | 93.8% | 70.8% | 30.3% | 19.1% | 22.4% | 20% | 17.3% | 9.97% | 7.04%
O=C(Nc1ncc(-c2cc(C(F)F)nn2-c2c(Cl)cccc2Cl)s1)C1CC1 | 101% | 113% | 102% | 128% | 121% | 124% | 118% | 47% | 20.5% | 21.9% | 8.41% | 112% | 106% | 123% | 131% | 127% | 137% | 124% | 31.5% | 14.8% | 14.8% | 4.67% | 115% | 103% | 99.9% | 137% | 127% | 123% | 130% | 37.2% | 17.8% | 22% | 5.55%
CN1CCN2c3ncccc3Cc3ccccc3C2C1 (stereo not given) | 115% | 91.6% | 101% | 97.4% | 98.9% | 106% | 22% | 112% | 112% | 89.5% | 101% | 116% | 116% | 108% | 121% | 114% | 129% | 16.9% | 122% | 127% | 111% | 97% | 137% | 116% | 113% | 124% | 134% | 136% | 28.7% | 129% | 126% | 124% | 122%
C[C@]12CC[C@H]3[C@@H](C\C=C/4C[C@@H](O)CC[C@]34C)[C@@H]1CCC2=O | 103% | 98.2% | 91.1% | 102% | 98.4% | 94.6% | 99.8% | 98.2% | 83.4% | 107% | 103% | 108% | 114% | 121% | 135% | 136% | 111% | 135% | 115% | 93.1% | 116% | 97.5% | 112% | 97.1% | 118% | 128% | 127% | 136% | 130% | 121% | 94.3% | 115% | 112%
Nc1cc(C(F)(F)F)c(-c2cc(N3CCOCC3)nc(N3CCOCC3)n2)cn1 | 118% | 121% | 99% | 113% | 113% | 88.5% | 72.2% | 43.4% | 14% | 6.54% | 5.09% | 88.9% | 89.2% | 88.1% | 102% | 90% | 64.2% | 75.6% | 27.4% | 6.68% | 3.92% | 2.34% | 113% | 131% | 121% | 123% | 118% | 91.1% | 74.1% | 37.6% | 14.6% | 5.59% | 3.9%
